# PMC7934871 (JCI Insight, 2021)
# Legend:
# HCT116 xenograft tumors = assay: HCT116 xenograft in NSG mice, peritumoral treatment; format: in vivo, mouse; settings: HCT116 s.c. in NSG mice, 1 mg/kg peritumoral every day, n = 4
# Description: Mouse care and experimental procedures were performed under pathogen-free conditions in accordance with established institutional guidance and approved IACUC protocols from Research Animal Care Committee of the City of Hope. For s.c. tumor challenge, 5 × 10^6 HCT116 cells were injected into NSG mice from The Jackson Laboratory or animal resource core facility at the City of Hope. After tumors reached an average size of 80~100 mm^3, mice were locally or intravenously treated with 1 mg/kg of PO- or PS-peptides (Anaspec) every day or every other day. Control animals were treated with the equal volume of HBSS (Invitrogen, Thermo Fisher Scientific). Tumor growth was measured by a digital caliper every other day. […] Lungs were then analyzed for immune responses by immunostaining followed by confocal imaging. […] Tumor growth was measured by a digital caliper every other day. […]
# (B) PS-acet.-STAT3 peptide downregulates STAT3 phosphorylation, assessed by Western blotting using tumor homogenates prepared from tumors shown in A.
# (C) mRNA levels for CASP9, BIRC5 and BCL2L1 in the same tumor tissues described above were assessed by qRT-PCR. […]
# (D) Treatments with PS-acet.-STAT3 peptide induced cell death, indicated by H&E staining (upper panel). […] Right panels represent quantification of Ki-67 protein levels and mean of vessel diameter (data include 5 fields of view per group). […]
# STAT1 = biological target: T1, STAT1 (Homo sapiens, UniProt P42224); assay: Immunoprecipitation and Western blotting, STAT1; format: binding; settings: immunoprecipitation, Western blotting, U251 cells
# T1 construct: endogenous in cells; host or cells: U251
# Description: Figure 2 PS-acet.-STAT3-peptide specifically binds STAT3 in the nucleus. (A) Penetration of PS-acet.-STAT3 peptide and its colocalization with STAT3 protein in U251 cells are confirmed by confocal microscopy. Scale bars: 50 μm. Insets: original magnification, ×40. (B) PS-acet.-STAT3 peptide specifically binds to STAT3 protein, not STAT1 and STAT5 proteins, shown in U251 cells by immunoprecipitation followed by Western blotting (left panel). Expression of total STAT1, STAT3, and STAT5 was confirmed by Western blotting in U251 cells (input protein level, right panel).
# Whole cell lysates or tissue homogenates were prepared by using RIPA lysis buffer (50 mM Tris at pH 7.4, 150 mM NaCl, 1 mM EDTA, 0.5% NP-40, 1 mM NaF, 15% glycerol, and 20 mM β-glycerophosphate). […] Protein amounts were determined by BCA using a Thermo Fisher Scientific kit. […] The protein levels for STAT1 (sc-346, E-23), STAT3 (sc-482, C-20), STAT5 (sc-74442, A-9), Crm1 (exportin 1) (sc-5595, H-300), CAS (exportin 2) (sc-271537, H-2), exportin 5 (sc-66885, H-300), and exportin 7 (sc-98639, H-82) were determined using antibodies from Santa Cruz Biotechnology Inc. Anti–exportin 3 (exportin T, 630622, LOS1 05-1525), anti–exportin 4 (3499-1), and anti–exportin 6 (11408-1-AP) were from MilliporeSigma, Epitomics, and Proteintech, respectively. […]
# T1 sequence (P42224 whole entry): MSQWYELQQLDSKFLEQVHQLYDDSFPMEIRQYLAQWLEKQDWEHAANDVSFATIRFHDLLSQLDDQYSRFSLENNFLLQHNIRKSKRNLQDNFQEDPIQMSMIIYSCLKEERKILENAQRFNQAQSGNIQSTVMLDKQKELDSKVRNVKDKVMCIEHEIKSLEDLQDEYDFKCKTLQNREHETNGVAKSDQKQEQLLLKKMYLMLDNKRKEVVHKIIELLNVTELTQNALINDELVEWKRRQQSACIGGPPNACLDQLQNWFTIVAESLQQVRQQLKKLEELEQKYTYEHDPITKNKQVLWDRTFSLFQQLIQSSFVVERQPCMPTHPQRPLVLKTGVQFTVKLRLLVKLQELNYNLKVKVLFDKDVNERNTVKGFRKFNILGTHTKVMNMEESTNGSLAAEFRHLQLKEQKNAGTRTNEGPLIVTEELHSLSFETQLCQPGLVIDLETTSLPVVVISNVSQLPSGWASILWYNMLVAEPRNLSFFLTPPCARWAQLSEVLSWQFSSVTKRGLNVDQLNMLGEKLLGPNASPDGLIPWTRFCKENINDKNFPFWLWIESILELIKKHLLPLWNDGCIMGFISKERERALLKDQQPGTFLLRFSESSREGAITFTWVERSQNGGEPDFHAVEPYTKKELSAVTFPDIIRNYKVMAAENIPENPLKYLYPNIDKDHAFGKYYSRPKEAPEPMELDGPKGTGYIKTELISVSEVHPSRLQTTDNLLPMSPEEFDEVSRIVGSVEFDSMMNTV
substance,measurement,setting,value
PDIPKEEAFGK685(Ac)YCRPESQEHPC-linker-T*C*C*A*T*G*A*G*C*T*T*C*C*T*G*A*T*G*C*T [PS-acet.-STAT3 peptide],tumor growth,HCT116 xenograft tumors,antitumor effects
same,binding to STAT1 protein,STAT1,not
